These molecules were tested on HSP17.6C-C1 of Arabidopsis thaliana (assay: HSP expression test (HSP17.6C-C1 upstream region linked to GUS, 4-MU production)). Settings: 1 μM; soaked 6 hours at 22° C.; positive control 50 μM geldanamycin.
Format: in vivo
Parameters: key: 4-MU per plant divided by 4-MU of 50 μM geldanamycin positive control
Protocol: First, a construct linked to β-glucuronidase (GUS) gene was introduced to 1 kb upstream of HSP17.6C-C1 of Arabidopsis thaliana (the family Brassicaceae) to prepare a mutant. Each naphthoquinone compound (shown in Table 1) dissolved in DMSO was diluted to 1 μM, 10 μM, 100 μM, or 1000 μM (final concentration) with deionized water to prepare a test solution of each example (final concentration of DMSO: 1.0% by volume). A 50 μM geldanamycin solution was similarly prepared as a positive control.
Next, two individuals of 7-day-old Arabidopsis thaliana mutants grown in a ⅕ MS medium were soaked in 300 μL of the test solution of each example or the positive control at 22° C. for 6 hours. The Arabidopsis thaliana was washed with deionized water, then soaked in 200 μL of a 4-methylumbelliferyl-β-D-glucuronide hydrate solution containing a surfactant, and incubated at 22° C. for 16 hours in the dark. The fluorescence intensity of the supernatant was measured, and the amount of 4-methylumbelliferone (4-MU) production per plant was calculated. The calculated value of 4-MU was divided by the value of 4-MU of the positive control to calculate a ratio vs. positive control. A higher numerical value means that HSP was expressed at a larger level.
Each shikonin compound or alkannin compound (shown in Table 2) dissolved in DMSO was diluted to 1 μM, 10 μM, 100 μM, or 1000 μM (final concentration) with deionized water to prepare a test solution of each example (final concentration of DMSO: 1.0% by volume). A 50 μM geldanamycin solution was similarly prepared as a positive control. The other test procedures were performed in the same way as in Test Example 1. The calculated value of 4-MU was divided by the value of 4-MU of the positive control to calculate a ratio vs. positive control. […]

Row | Compound | Ratio of 4-MU amount vs. positive control
1 | O=C1C=CC(=O)c2ccccc21 [Example 1, 1,4-Naphthoquinone] | 0.13
2 | O=C1C=C(O)C(=O)c2ccccc21 [Example 2, 2-Hydroxy-1,4-naphthoquinone] | 0.14
3 | O=C1C=CC(=O)c2c(O)cccc21 [Example 3, 5-Hydroxy-1,4-naphthoquinone] | 0.17
4 | CC1=CC(=O)c2c(O)cccc2C1=O [Example 4, 5-Hydroxy-2-methyl-1,4-naphthoquinone] | 0.13
5 | O=C1C(Cl)=C(Cl)C(=O)c2ccccc21 [Example 6, 2,3-Dichloro-1,4-naphthoquinone] | 0.47
6 | O=C1C(Cl)=C(Cl)C(=O)c2c1cccc2[N+](=O)[O-] [Example 8, 2,3-Dichloro-5-nitro-1,4-naphthoquinone] | 0.15
7 | O=C1C(Cl)=C(Cl)C(=O)c2cc([N+](=O)[O-])ccc21 [Example 9, 2,3-Dichloro-6-nitro-1,4-naphthoquinone] | 0.17
8 | CC1=CC(=O)c2ccccc2C1=O [Example 10, 2-Methyl-1,4-naphthoquinone] | 0.04
9 | COC1=CC(=O)c2ccccc2C1=O [Example 11, 2-Methoxy-1,4-naphthoquinone] | 0.06

Same assay, conditions: 10 μM; soaked 6 hours at 22° C.; positive control 50 μM geldanamycin

Row | Compound | Ratio of 4-MU amount vs. positive control
10 | O=C1C=CC(=O)c2ccccc21 [Example 1, 1,4-Naphthoquinone] | 0.76
11 | O=C1C=C(O)C(=O)c2ccccc21 [Example 2, 2-Hydroxy-1,4-naphthoquinone] | 0.15
12 | O=C1C=CC(=O)c2c(O)cccc21 [Example 3, 5-Hydroxy-1,4-naphthoquinone] | 0.14
13 | CC1=CC(=O)c2c(O)cccc2C1=O [Example 4, 5-Hydroxy-2-methyl-1,4-naphthoquinone] | 1.0
14 | O=C1C(Cl)=C(Cl)C(=O)c2ccccc21 [Example 6, 2,3-Dichloro-1,4-naphthoquinone] | 5.12
15 | O=C1C(Cl)=C(Cl)C(=O)c2c1cccc2[N+](=O)[O-] [Example 8, 2,3-Dichloro-5-nitro-1,4-naphthoquinone] | 1.00
16 | O=C1C(Cl)=C(Cl)C(=O)c2cc([N+](=O)[O-])ccc21 [Example 9, 2,3-Dichloro-6-nitro-1,4-naphthoquinone] | 0.91
17 | CC1=CC(=O)c2ccccc2C1=O [Example 10, 2-Methyl-1,4-naphthoquinone] | 0.05
18 | COC1=CC(=O)c2ccccc2C1=O [Example 11, 2-Methoxy-1,4-naphthoquinone] | 0.04

Same assay, conditions: 100 μM; soaked 6 hours at 22° C.; positive control 50 μM geldanamycin

Row | Compound | Ratio of 4-MU amount vs. positive control
19 | O=C1C=CC(=O)c2ccccc21 [Example 1, 1,4-Naphthoquinone] | 0.27
20 | O=C1C=C(O)C(=O)c2ccccc21 [Example 2, 2-Hydroxy-1,4-naphthoquinone] | 0.47
21 | O=C1C=CC(=O)c2c(O)cccc21 [Example 3, 5-Hydroxy-1,4-naphthoquinone] | 0.59
22 | CC1=CC(=O)c2c(O)cccc2C1=O [Example 4, 5-Hydroxy-2-methyl-1,4-naphthoquinone] | 0.18
23 | O=C1C(Cl)=C(Cl)C(=O)c2ccccc21 [Example 6, 2,3-Dichloro-1,4-naphthoquinone] | 1.86
24 | O=C1C(Cl)=C(Cl)C(=O)c2c1cccc2[N+](=O)[O-] [Example 8, 2,3-Dichloro-5-nitro-1,4-naphthoquinone] | 0.38
25 | O=C1C(Cl)=C(Cl)C(=O)c2cc([N+](=O)[O-])ccc21 [Example 9, 2,3-Dichloro-6-nitro-1,4-naphthoquinone] | 0.66
26 | CC1=CC(=O)c2ccccc2C1=O [Example 10, 2-Methyl-1,4-naphthoquinone] | 0.09
27 | COC1=CC(=O)c2ccccc2C1=O [Example 11, 2-Methoxy-1,4-naphthoquinone] | 0.21

Same assay, conditions: 1000 μM; soaked 6 hours at 22° C.; positive control 50 μM geldanamycin

Row | Compound | Ratio of 4-MU amount vs. positive control
28 | O=C1C=CC(=O)c2ccccc21 [Example 1, 1,4-Naphthoquinone] | 0.03
29 | O=C1C=C(O)C(=O)c2ccccc21 [Example 2, 2-Hydroxy-1,4-naphthoquinone] | 0.04
30 | O=C1C=CC(=O)c2c(O)cccc21 [Example 3, 5-Hydroxy-1,4-naphthoquinone] | 0.46
31 | CC1=CC(=O)c2c(O)cccc2C1=O [Example 4, 5-Hydroxy-2-methyl-1,4-naphthoquinone] | 0.06
32 | O=C1C(Cl)=C(Cl)C(=O)c2ccccc21 [Example 6, 2,3-Dichloro-1,4-naphthoquinone] | 1.16
33 | O=C1C(Cl)=C(Cl)C(=O)c2c1cccc2[N+](=O)[O-] [Example 8, 2,3-Dichloro-5-nitro-1,4-naphthoquinone] | 0.46
34 | O=C1C(Cl)=C(Cl)C(=O)c2cc([N+](=O)[O-])ccc21 [Example 9, 2,3-Dichloro-6-nitro-1,4-naphthoquinone] | 0.48
35 | CC1=CC(=O)c2ccccc2C1=O [Example 10, 2-Methyl-1,4-naphthoquinone] | 0.08
36 | COC1=CC(=O)c2ccccc2C1=O [Example 11, 2-Methoxy-1,4-naphthoquinone] | 0.11

What follows are molecules tested on Arabidopsis thaliana (assay: Heat tolerance induction test based on chlorophyll concentration). Settings: 50 μM in medium; heat-treated at 44° C. for 1 hour; 3 days culture after.
Format: in vivo
Protocol: A ⅕ MS medium was prepared in a 6-well plate, and filter paper was placed thereon. 12 individuals of wild-type Arabidopsis thaliana were seeded per well and grown at 22° C. for 7 days in a plant incubator under 16-hour light and 8-hour dark conditions. Next, the naphthoquinone compound of each example (shown in Table 3) dissolved in DMSO was added to a ⅕ MS medium, and each medium (final concentration: 50 μM) was prepared in a 6-well plate (final concentration of DMSO: 1.0% by volume). A medium containing 1.0% by volume of DMSO was used as a control.
The Arabidopsis thaliana grown for 7 days in the 6-well plate was transplanted, together with the filter paper, to the medium containing the compound and cultured for 1 day in a plant incubator. The plate was placed in a plastic bag and heat-treated at 44° C. for 1 hour in a water bath. After the heat treatment, culture was performed for 3 days in a plant incubator. The leaves of 4 Arabidopsis thaliana individuals were cut out, and chlorophyll was extracted with 300 μL of ethanol. The absorbance of each extract was measured at 649 nm and 665 nm, and the chlorophyll concentration (mg/L) was calculated. A higher chlorophyll concentration means that heat tolerance is better.
The shikonin compound of each example (shown in Table 4) dissolved in DMSO was added to a ⅕ MS medium, and each medium (final concentration: 50 μM) was prepared in a 6-well plate (final concentration of DMSO: 1.0% by volume). A medium containing 1% by volume of DMSO was used as a control. The other test procedures were performed in the same way as in Test Example 3.
The Lithospermi radix extract used was Shikonix Liquid (BG) (trade name, manufactured by Ichimaru Pharcos Co., Ltd.) containing a Lithospermum erythrorhizon root extract. The Shikonix Liquid contained, as major components, shikonin compounds such as acetylshikonin, β-hydroxyisovalerylshikonin, and isobutyrylshikonin. The Shikonix Liquid also contained, as additional minor components, α-methyl-n-butylshikonin, β,β-dimethylacrylshikonin, isovalerylshikonin, and shikonin.
The Shikonix Liquid (BG) was added at a dilution ratio of 150-fold to a ⅕ MS medium. The same amount of water was added as a control. ThermoZyme (manufactured by Fujimikogyo Co., Ltd.) was added at a dilution ratio of 150-fold as a positive control (Reference Example). The other test procedures were performed in the same way as in Test Example 3.

Row | Compound | Chlorophyll concentration
37 | O=C1C(Cl)=C(Cl)C(=O)c2ccccc21 [Example 6, 2,3-Dichloro-1,4-naphthoquinone] | 6.21 mg/L

The molecules below were run on maize (assay: Drought tolerance improvement test of maize). Settings: 10 μM, 2 mL/cell; 19 days without water, counted 5 days after water addition.
Format: in vivo
Protocol: Four parts each involving 9 cells (3×3) were cut out of a 72-cell tray. Seedling soil was placed therein, and water was added. 4 seeds of maize were seeded per cell. The temperature was set to 20° C. using a plant growth chamber, followed by cultivation under 16-hour light and 8-hour dark conditions. After budding, each naphthoquinone compound dissolved in DMSO was diluted to 10 μM (final concentration) with deionized water to prepare a test solution of each example (final concentration of DMSO: 1.0% by volume). Each test solution was sprayed to leaf surface in one of the cell trays. The volume of the test solution sprayed was set to 2 mL/cell. The same volume of water was sprayed to the other cell tray and used as a control. After the spraying, cultivation was continued without the addition of water. 19 days after the spraying, water was added to the soil. 5 days after the water addition, the number of maize survivors was counted and divided by the initial number of growing plants to calculate a survival rate (%).

Row | Compound | Survival rate
38 | O=C1C(Cl)=C(Cl)C(=O)c2ccccc21 [Example 6, 2,3-Dichloro-1,4-naphthoquinone] | 53%

Each molecule was assayed on maize (assay: Salt tolerance improvement test of maize). Settings: 10 μM, 2 mL/cell; 1.0% NaCl five times every two days; fresh weight.
Format: in vivo
Protocol: (§1) Two parts each involving 9 cells (3×3) were cut out of a 72-cell tray. Seedling soil was placed therein, and water was added. 4 seeds of maize were seeded per cell. The temperature was set to 20° C. using a plant growth chamber, followed by cultivation under 16-hour light and 8-hour dark conditions. After budding, Shikonix Liquid (BG) (manufactured by Ichimaru Pharcos Co., Ltd.) was diluted 500-fold and sprayed as the Lithospermi radix extract to leaf surface in one of the cell trays. The volume of the Shikonix Liquid sprayed was set to 2 mL/cell. The same volume of water was sprayed to the other cell tray and used as a control. Two days later, a 1.0% NaCl solution was prepared and absorbed from the underside of each cell tray. The NaCl solution treatment was performed five times every two days. The above-ground parts were cut off, and their fresh weights were measured. An average value (g/plant) was calculated.
as §1, with “Four parts” for “Two parts”, “budding, each naphthoquinone compound dissolved in DMSO” for “budding, Shikonix Liquid (BG) (manufactured by Ichimaru Pharcos Co., Ltd.)”, “diluted to 10 μM (final concentration) with deionized water to prepare a test solution of each example (final concentration of DMSO: 1.0% by volume). Each test solution was” for “diluted 500-fold and”, “sprayed” for “sprayed as the Lithospermi radix extract”, “the test solution” for “the Shikonix Liquid”

Row | Compound | Above-ground part weight
39 | O=C1C(Cl)=C(Cl)C(=O)c2ccccc21 [Example 6, 2,3-Dichloro-1,4-naphthoquinone] | 0.726 g/plant

— patent US11638425B2, “Agent for inducing stress tolerance in plants” (Menicon Co. Ltd., priority 2017, dated 2023)
